Experimental data taken from a melting point compilation (Tetko et al.; mined from patent text by program, amines drawn as free bases though some values may be those of a salt).

melting point [°C]	SMILES
235	N#Cc1ccc2c(c1)Nc1ccc(Cl)cc1S2
44 to 46	FC(F)(F)Sc1[nH]ccc1-c1ccc(Cl)cc1
106 to 108	O=C1OC(=O)c2cc(N=C=S)ccc21
169 to 170	CCOC(=O)c1cc2c(=O)n(C(C)C)c3ccccc3n2c1
120	CC(C)(C)OC(=O)N1C(=O)C(Br)=C(c2cn(C(=O)OC(C)(C)C)c3cc(OCc4ccccc4)ccc23)C1=O
67 to 70	Cc1nc(-n2ccc(Oc3ccccc3)cc2=O)sc1C(=O)NCc1ccccc1
115	CCCCC[C@@H](CNC(=O)Nc1c(OC(C)C)ccc2c1CCCC2)c1cccc2c1OCO2
110 to 113	CCCCN(C(=O)CCC(=O)O)C1CC(C)(C)N(OC2CCCCC2)C(C)(C)C1
200	COc1ccccc1Nc1ccc2c(c1)OCc1cc([N+](=O)[O-])ccc1C2=O
181 to 182	CCOC(=O)C1Cc2ccc(N(C)C)cc2NC1=O (configuration not stated)
81 to 82	CCN1CCN(c2ccc(CC3=C(C)C(=O)c4ccccc4C3=O)cc2)CC1
286 to 288	COc1cc2[nH]c(C(=O)O)cc(=O)c2c2cccnc12
28.6 to 30.6	CCCCCCCCCCCCCCC(OC)C(=O)OC (configuration not stated)
67.5 to 69	O=S(=O)(/C(=C\c1ccccc1)CO)c1ccccc1
173 to 174	CCOC(=O)c1ccc(-c2cnc3c(c2)N(Cc2cc(F)ccc2F)CCN3)cc1
211 to 214	COc1ccc(-c2nc(NC3=NCCN3)sc2-c2ccc(OC)cc2)cc1
165 to 166	O=[N+]([O-])c1cc(C(c2ccc(Nc3ccccc3)c([N+](=O)[O-])c2)(C(F)(F)F)C(F)(F)F)ccc1Nc1ccccc1
209 to 210	Cc1ccc2c(C(C)C(=O)O)cc(=O)[nH]c2c1 (configuration not stated)
68 to 70	COC(=O)CCCCCCCCCNS(=O)(=O)c1ccc(Cl)cc1
167 to 170	CCC1(C)CC(C#N)(NC(=O)Nc2ccccc2)C(C)C(C)(CC)N1 (configuration not stated)
155	CCCCCOc1ccc(C(=O)Nc2ccc3cc(CN4CCCC4)cnc3c2C)cc1
190 to 192	CC1(C(O)=C(Cc2ccc(Cl)cc2Cl)n2cncn2)COCOC1
41 to 42	CCOC(=O)COc1ccc(C(=O)CN2CCN(c3ccncc3)CC2)cc1

melting point [°C]	SMILES
144 to 145	CC(NC(=O)Cc1cc(F)cc(F)c1)C(=O)NC1C(=O)N(Cc2ccccc2)Cc2ccccc21 (configuration not stated)
163 to 165	COc1ccc(C(Sc2cc(Oc3cccc(C)c3)ccc2N)C(O)C(=O)O)cc1 (configuration not stated)
56.4	CCN(CC)C(=O)c1ccc(S(=O)(=O)N(CC)CC)o1
217 to 218	CCN(CC)c1cc2c(cc1C)Nc1c(cc(NC(C)=O)c3ncn(C)c13)O2
220 to 221	CCCc1nc2cccc(C(=S)OC)c2n1Cc1ccc(-c2ccccc2)c(-c2nc(=O)o[nH]2)c1
221 to 224	COC(=O)c1ccc2oc3c(c(=O)c2c1)CCC3=Cc1cc(OC)c(OC)cc1OC
138 to 139	CN1CCc2cc(OC[C@H]3CO[C@](Cn4ccnc4)(c4ccc(Cl)cc4Cl)O3)ccc2C12CCSCC2 (racemic)
222 to 225	C=C(C)C(=O)Nc1cc(C(C)(C)C)c(O)c(C(C)(C)C)c1
198	C(=C1CC(c2ccccc2)Cc2ccccc21)c1cncn1Cc1ccccc1 (configuration not stated)
328 to 332	CN1c2ccc(-c3ccc4ccccc4c3)cc2S(=O)(=O)c2cc(-c3ccc4ccccc4c3)ccc21
154 to 156	COc1ccc(N2CCN(c3c(C)c(C)c4c(c3C)CC(C)(C)O4)CC2)c(OC)c1
79 to 81	CC(C)(C)c1cccc(CC(O)CO)c1OCc1ccccc1 (configuration not stated)
124	CSc1nc(Cl)c2cc(Br)ccc2n1
179 to 180	C#CCc1c(C)nc2c(OCc3ccccc3S(C)(=O)=O)cccn12
149 to 152	NC(=O)Cc1cc(Oc2ccc3c(ccn3C(=O)Nc3ccc(N4CCNCC4)c(C(F)(F)F)c3)c2)ncn1
233 to 235	CC(C)(Cc1ccccc1)Nc1c(NCc2cc3cc(C#N)ccc3o2)c(=O)c1=O
108 to 110	CCOC(=O)Cc1c(C(F)(F)F)nc(C)[nH]c1=O
128	CC(C)(C)OC(=O)NC(CC(=O)O)c1ccc(Cl)c(Cl)c1 (configuration not stated)
87 to 87.5	CC(=O)c1csc(-c2ccncc2)c1C
118 to 123	CCOC(=O)C(C)(C(C)=O)c1ccc(N)c(NC)c1C#N (configuration not stated)
160 to 170	O=C(O)CCC(Cc1ccccc1)(C(=O)C=Cc1ccc(Cl)cc1)c1ccccc1 (configuration not stated)
188 to 190	CC1OC(Cn2cncn2)(c2ccc(Cl)cc2Cl)CN1S(=O)(=O)c1ccc(C(F)(F)F)cc1 (configuration not stated)
133 to 134	Cc1cc(C(O)CS(C)(=O)=O)cc(C)c1N(C)C (configuration not stated)

melting point [°C]	SMILES
247	COc1ccc(C=CC(=O)c2ccc(O)c(CC(=O)O)c2)cc1
127	COC(=O)c1cc(C(=O)c2cccc(Cl)c2)n(C)c1
91 to 92	C=CCOC(=O)NCC(=N)NO
93 to 94	CCOC(=O)CCc1cn(Cc2ccc(OCc3nc(-c4ccccc4)oc3C)cc2)nc1-c1ccc(F)cc1
234	O=C(CCCCl)Nc1ccc2c(c1)C(=O)c1cc(NC(=O)CCCCl)ccc1C2=O
85 to 87	CC(C)(C)C(=O)OCCn1nc(-c2cc(C(C)(C)C)c(O)c(C(C)(C)C)c2)c2cccnc21
56 to 58	CC(=O)c1ccc2c(c1)CCC1(CC2)CC1
121	COc1ccc([C@@H]2CCc3cc(OC)ccc3[C@@H]2CCn2ccnc2)cc1 (relative stereo)
203	O=[N+]([O-])c1cccc2c1C[C@H]1CSC(=S)N1C2
179 to 181	COc1cccc(CNS(=O)(=O)c2ccc(C(CC3CCCC3)C(=O)Nc3nc4ccc(OC)nc4s3)cc2)c1 (configuration not stated)
162	COc1ccccc1CC(=O)N1C[C@H]2C[C@H](CO)C[C@](O)(c3ccccc3OC)[C@H]2C1 (racemic)
140 to 145	CC(C(=O)O)c1ccc2c(c1)Cc1cc(F)ccc1S2 (configuration not stated)
204	CCn1c(N)c(C(=O)NC)c(=O)c2ccc(C#CC(C)(C)OCC(N)=O)nc21
183 to 186	N#Cc1ccc(CNC(=O)c2cccc(C#CCn3cncn3)c2)cc1
130 to 132	CC(=O)NNC(=N)C(Cl)(Cl)Cl
140 to 142	O=C(O)[C@@H](Cc1ccccc1)Oc1c(Br)cc(-c2c3ccccc3c(Br)c3sc4ccccc4c23)cc1Br
278	NC(=O)c1nc(-c2ccc3nc[nH]c3c2)nc2c1[nH]c(=O)n2-c1ccccc1F
124 to 125	NC(=CC(=O)c1ccncc1)C1CC1
97 to 120	CN(C(=O)N(C)n1cnc2ccccc2c1=O)c1ccc(Cl)cc1
65 to 75	COCCOc1ccc(Nc2nc(Nc3cc4c(cc3OC)CCN(CC(=O)N(C)C)CC4)ncc2Cl)c(S(=O)(=O)C(C)C)c1
162 to 163	COc1cccc(Cn2c(C)c(CC(=O)O)c3cc(OCc4csc(-c5ccccc5)n4)ccc32)c1
138 to 139	CSCCNC(=O)c1cccc(-c2cccc3c(C)c(Cc4cccc(C(F)(F)F)c4)oc23)c1
235 to 238	CCCCOc1ccc(S(C)(=O)=O)cc1-c1nc2c(CC)n(CCN3CCOCC3)nc2c(=O)[nH]1

melting point [°C]	SMILES
145 to 158	O=c1n(CCO)c2ccccc2n1CCO
214 to 216	CC(C)C1(C)N=C2c3nc4sccc4cc3C(=O)N2C1=O (configuration not stated)
158 to 159	O=C(O)CCCc1ccc(S(=O)(=O)Nc2ccccc2)cn1
141 to 144	COc1cccc([C@H]2O[C@H](CC(=O)Nc3cccc(CCC(=O)O)c3)C(=O)N(CC(C)(C)CO)c3ccc(Cl)cc32)c1OC
52 to 54	CCCC1CCC(CC(=O)N[C@@H](Cc2cc(F)cc(F)c2)[C@H](O)CNCc2cccc(CC)c2)CC1=O (some centres not stated)
129 to 130	CCOc1cc2c(cc1O)C(=O)CC(C)(C)O2
64 to 66	O=C(Cn1nnnc1-c1ccc2ccccc2c1)OCCO
102 to 105	CCCCn1cnnc1SC(=O)c1ccoc1
257 to 259	CC1=NN(c2cc(Cl)c(C(=O)c3ccc(Cl)cc3)c(Cl)c2)C(=O)NC1
165 to 168	CCOC(=O)c1cn2c3c(ccc(OC)c3c1=O)OCC2C (configuration not stated)
192 to 194	CSC(=O)N(C)c1nnc(-c2cccnc2)s1
185 to 188	Cc1ccc(C(O)C2C(c3ccccc3)CC(=O)N2C)s1 (configuration not stated)
109	Cc1cc(OC(F)(F)C(Cl)Cl)c([N+](=O)[O-])cc1S(=O)(=O)C=CC#N
275 to 280	Cc1csc2c1c(-c1ccccc1)nc(=O)n2C
152 to 155	COCCn1cc(C(=O)N2CCC(c3cc(CNC(=O)C(F)(F)F)ccc3F)CC2)c2c(-c3ccncc3)cccc21
216 to 217	CC(C(=O)O)c1ccc2c(c1)C(=O)Cc1cc(O)ccc1S2 (configuration not stated)
247 to 249	COc1c(Cl)cc(C(=O)Nc2c(Cl)cncc2Cl)c2c3ccccc3n(CC3CCCCC3)c12
101 to 102	O=C1C2=C(CCCC2)C(=S)N1c1ccc(Cl)cc1F
146 to 147	CCCN(Cc1ccc(-c2ccccc2-c2nnn[nH]2)cc1)c1ncccc1C(=O)OC
203	Nc1c(I)c(C(=O)NCC(O)CO)c(I)c(C(=O)NCC(O)CO)c1I (single isomer, unassigned; (-))

SMILES	melting point [°C]
Cc1nc(C=O)c2n1-c1ccc(Cl)cc1C(c1ccccc1Cl)=NC2	237 to 239
CN1CCN(C2CC3(C)C(CCC4C3CCC3(C)C(O)C(N5CCCCC5)CC43)CC2O)CC1 (configuration not stated)	230 to 234
CC12CCC3C(CC=C4CC(O)CCC43CSSCCO)C1CCC2=O (configuration not stated)	129 to 130
CC(=O)N1c2cc(Cl)ccc2OP1c1ccccc1 (configuration not stated)	56 to 58
COC(=O)c1cccnc1N(C)C1CCN(Cc2ccccc2)CC1	109 to 110
O=C1CCC2C3Cc4ccc(O)c5c4C2(CC[N+]3([O-])CC2CC2)C1O5 (configuration not stated)	209 to 211
CC(C)c1nc(-c2ccc(/C=C/C3(O)CN4CCC3CC4)cc2)no1 (configuration not stated)	142 to 144
COCCOC(=O)NC(=O)CCl	97 to 99
